Reference: patent US20240217968A1, “PHARMACEUTICAL COMPOUND” (DUKE STREET BIO LIMITED, priority 2021, published 2024)

molecular target: T1, recombinant human Flag-tagged PARP7 (amino acids 456-657) (Homo sapiens, UniProt Q7Z3E1); test: PARP7 biochemical DELFIA assay (auto-MARylation); details: DELFIA readout, IC50 class
T1 construct: recombinant human Flag-tagged PARP7 (amino acids 456-657)
T1 sequence (Q7Z3E1 456-657): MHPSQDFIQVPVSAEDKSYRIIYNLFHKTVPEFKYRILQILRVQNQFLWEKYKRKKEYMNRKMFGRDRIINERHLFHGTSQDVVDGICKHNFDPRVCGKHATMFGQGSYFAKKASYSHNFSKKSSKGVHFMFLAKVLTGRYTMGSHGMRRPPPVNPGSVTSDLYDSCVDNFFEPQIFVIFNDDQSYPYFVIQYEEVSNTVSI
How it was run: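 Readout is DELFIA time-resolved Eu fluorescence (Ex337 nm, Em620 nm) of biotin-ADP-ribose on immobilised Flag-tagged PARP7 456-657. Enzyme (12.5-37.5 nM as added) sat 30 min with compound before biotin-NAD+ (15 μM solution, pH 7.5 HEPES buffer) started 2-3 h room-temperature self-modification, stopped with excess NAD+.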

`CC(CCOCC(=O)N1CCN(c2ccc(C#N)cn2)CC1)n1nc(C(F)(F)F)c2c(=O)[nH]ncc21` (single isomer, unassigned) [Compound 467] and `CC(CCOCC(=O)N1CCN(c2ncc(C#N)cn2)CC1)n1nc(C(F)(F)F)c2c(=O)[nH]ncc21` (single isomer, unassigned) [Compound 496] cannot be ordered by IC50: at most 100 nM for the first, at most 100 nM for the second.

`CC(COCCC(=O)N1CCN(c2ncc(F)cn2)CC1)n1cc(C(F)(F)F)c2c(=O)[nH]ncc21` (single isomer, unassigned) [Compound 468] and `CC(COCCC(=O)N1CCN(c2ncc(C(C)(F)F)cn2)CC1)n1cc(C(F)(F)F)c2c(=O)[nH]ncc21` (single isomer, unassigned) [Compound 482] cannot be ordered by IC50: at most 100 nM for the first, at most 100 nM for the second.

`CC(COCCC(=O)N1CCN(c2ncc(F)cn2)CC1)n1cc(C(F)(F)F)c2c(=O)[nH]ncc21` (single isomer, unassigned) [Compound 469] and `CC(COCCC(=O)N1CCN(c2ncc(C(C)(C)C)cn2)CC1)n1cc(C(F)(F)F)c2c(=O)[nH]ncc21` (single isomer, unassigned) [Compound 498] cannot be ordered by IC50: at most 100 nM for the first, at most 100 nM for the second.

`CC(COCCC(=O)N1CCN(c2nnc(C(F)(F)F)o2)CC1)n1nc(C(F)(F)F)c2c(=O)[nH]ncc21` (single isomer, unassigned) [Compound 472] and `CC(COCCC(=O)N1CCN(c2ncc(C(C)(F)F)cn2)CC1)n1nc(C(F)(F)F)c2c(=O)[nH]ncc21` (single isomer, unassigned) [Compound 485] cannot be ordered by IC50: at most 100 nM for the first, at most 100 nM for the second.

`CC(COCCC(=O)N1CCN(c2nnc(C(F)(F)F)o2)CC1)n1nc(C(F)(F)F)c2c(=O)[nH]ncc21` (single isomer, unassigned) [Compound 473] and `CC(COCCC(=O)N1CCN(c2ncc(C(C)(F)F)cn2)CC1)n1nc(C(F)(F)F)c2c(=O)[nH]ncc21` (single isomer, unassigned) [Compound 486] cannot be ordered by IC50: 100 to 1000 nM for the first, at most 100 nM for the second.

`[2H]C(C)(COCCC(=O)N1CCN(c2ncc(C(F)(F)F)cn2)CC1)n1cc(C(F)(F)F)c2c(=O)[nH]ncc21` (single isomer, unassigned) [Compound 476, 1-(1-(3-oxo-3-(4-(5-(trifluoromethyl)pyrimidin-2-yl)piperazin-1-yl)propoxy)propan-2-yl-2-d)-3-(trifluoromethyl)-1,5-dihydro-4H-pyrrolo[2,3-d]pyridazin-4-one] and `CC(COCCC(=O)N1CCN(c2ncc(C(C)(C)C)cn2)CC1)n1cc(C(F)(F)F)c2c(=O)[nH]ncc21` (single isomer, unassigned) [Compound 499] cannot be ordered by IC50: at most 100 nM for the first, at most 100 nM for the second.

`[2H]C(C)(COCCC(=O)N1CCN(c2ncc(C(F)(F)F)cn2)CC1)n1cc(C(F)(F)F)c2c(=O)[nH]ncc21` (single isomer, unassigned) [Compound 477, 1-(1-(3-oxo-3-(4-(5-(trifluoromethyl)pyrimidin-2-yl)piperazin-1-yl)propoxy)propan-2-yl-2-d)-3-(trifluoromethyl)-1,5-dihydro-4H-pyrrolo[2,3-d]pyridazin-4-one] and `CC(COCCC(=O)N1CCN(c2ccc(C(C)(F)F)cn2)CC1)n1cc(C(F)(F)F)c2c(=O)[nH]ncc21` (single isomer, unassigned) [Compound 484] cannot be ordered by IC50: at most 100 nM for the first, at most 100 nM for the second.

`CC(COCC(=O)NC1CCN(c2ncc(C(F)(F)F)cn2)CC1)n1nc(C(F)(F)F)c2c(=O)[nH]ncc21` (single isomer, unassigned) [Compound 479, 2-(2-(4-oxo-3-(trifluoromethyl)-4,5-dihydro-1H-pyrazolo[3,4-d]pyridazin-1-yl)propoxy)-N-(1-(5-(trifluoromethyl)pyrimidin-2-yl)piperidin-4-yl) acetamide] and `CC(COCCC(=O)N1CCN(c2ncc(C(C)(C)C)cn2)CC1)n1nc(C(F)(F)F)c2c(=O)[nH]ncc21` (single isomer, unassigned) [Compound 500] cannot be ordered by IC50: at most 100 nM for the first, at most 100 nM for the second.

`CC(COCC(=O)NC1CCN(c2ncc(C(F)(F)F)cn2)CC1)n1nc(C(F)(F)F)c2c(=O)[nH]ncc21` (single isomer, unassigned) [Compound 480, 2-(2-(4-oxo-3-(trifluoromethyl)-4,5-dihydro-1H-pyrazolo[3,4-d]pyridazin-1-yl)propoxy)-N-(1-(5-(trifluoromethyl)pyrimidin-2-yl)piperidin-4-yl) acetamide] and `CC(COCCC(=O)N1CCN(c2ncc(C(C)(C)C)cn2)CC1)n1nc(C(F)(F)F)c2c(=O)[nH]ncc21` (single isomer, unassigned) [Compound 501] cannot be ordered by IC50: at most 100 nM for the first, at most 100 nM for the second.

`CC(COCCC(=O)N1CCN(c2ncc(C#N)cn2)CC1)n1nc(C(F)F)c2c(=O)[nH]ncc21` (single isomer, unassigned) [Compound 490] and `CC(CCOCC(=O)N1CCN(c2ncc(C#N)cn2)CC1)n1nc(C(F)(F)F)c2c(=O)[nH]ncc21` (single isomer, unassigned) [Compound 497] cannot be ordered by IC50: at most 100 nM for the first, at most 100 nM for the second.

`CC(COCCC(=O)N1CCN(c2ncc(C#N)cn2)CC1)n1nc(C(F)F)c2c(=O)[nH]ncc21` (single isomer, unassigned) [Compound 491] and `O=C(CCOCCn1ccc2c(=O)[nH]ncc21)N1CCN(c2ncc(C(F)(F)F)cn2)CC1` [Compound 10, 1-(2-(3-oxo-3-(4-(5-(trifluoromethyl)pyrimidin-2-yl)piperazin-1-yl)propoxy)ethyl)-1,5-dihydro-4H-pyrrolo[2,3-d]pyridazin-4-one] cannot be ordered by IC50: at most 100 nM for the first, at most 100 nM for the second.

`CC(CCOCC(=O)N1CCN(c2ccc(C#N)cn2)CC1)n1cc(C(F)(F)F)c2c(=O)[nH]ncc21` (single isomer, unassigned) [Compound 494] and `O=C(COCCOc1cccc2c(=O)[nH]ncc12)N1CCN(c2ncc(C(F)(F)F)cn2)CC1` [Compound 3] cannot be ordered by IC50: at most 100 nM for the first, 100 to 1000 nM for the second.

`CC(CCOCC(=O)N1CCN(c2ccc(C#N)cn2)CC1)n1cc(C(F)(F)F)c2c(=O)[nH]ncc21` (single isomer, unassigned) [Compound 495] and `N#Cc1ccc(N2CCN(C(=O)c3cccc(Cn4ccc5c(=O)[nH]ncc54)c3)CC2)nc1` [Compound 9] fall in the same range of IC50: 100 to 1000 nM for the first, 100 to 1000 nM for the second.

First: N#Cc1ccc(N2CCN(C(=O)c3cccc(Cc4cccc5c(=O)[nH]ncc45)c3)CC2)nc1 [Compound 1, 6-(4-(3-((1-oxo-1,2-dihydrophthalazin-5-yl)methyl)benzoyl)piperazin-1-yl)nicotinonitrile]
Second: N#Cc1ccc(N2CCN(C(=O)c3cccc(CN4CCc5c4cn[nH]c5=O)c3)CC2)nc1 [Compound 5]
The IC50 of the first is lower: at most 100 nM for the first, 1000 to 10000 nM for the second. The first is the more potent here.

First: O=C(c1cccc(Cc2cccc3c(=O)[nH]ncc23)c1)N1CCN(C(=O)C2CC2)CC1 [Compound 2]
Second: N#Cc1ccc(N2CCN(C(=O)c3cccc(CN4CCCc5c4cn[nH]c5=O)c3)CC2)nc1 [Compound 7]
The IC50 of the first is higher: 1000 to 10000 nM for the first, 100 to 1000 nM for the second.

`O=C(CCOCCc1cccc2c(=O)[nH]ncc12)N1CCN(c2ncc(C(F)(F)F)cn2)CC1` [Compound 4] and `O=C(CCOCCN1CCc2c1cn[nH]c2=O)N1CCN(c2ncc(C(F)(F)F)cn2)CC1` [Compound 6] cannot be ordered by IC50: at most 100 nM for the first, 100 to 1000 nM for the second.

`O=C(CCOCCN1CCCc2c1cn[nH]c2=O)N1CCN(c2ncc(C(F)(F)F)cn2)CC1` [Compound 8] and `O=C(CCOCCN1CCOc2c1cn[nH]c2=O)N1CCN(c2ncc(C(F)(F)F)cn2)CC1` [Compound 12] cannot be ordered by IC50: at most 100 nM for the first, 100 to 1000 nM for the second.

First: N#Cc1ccc(N2CCN(C(=O)c3cccc(CN4CCOc5c4cn[nH]c5=O)c3)CC2)nc1 [Compound 11]
Second: O=C(COCCOc1cccc2c(=O)[nH]cnc12)N1CCN(c2ncc(C(F)(F)F)cn2)CC1 [Compound 15]
The IC50 of the first is higher: 1000 to 10000 nM for the first, 100 to 1000 nM for the second. The second is the more potent here.
